A short description of data set [1]: Brain blood barrier penetration assay (short oral absorption model with in vitro blood and brain binding). Type of data set: in vivo. Conditions: male Han Wistar rats, oral 2 mg/kg in 1% methylcellulose; for Kp uu: rat. The text has this: Both Kp,uu brain and Kp,uu CSF should be the main parameters measured and optimized in CNS drug discovery (Di L et al., Journal of Medicinal Chemistry [2013], 56: 2-12). Kp,uu brain, the relationship between concentrations of unbound drug in brain and in blood, predicts drug action on metastatic tumors in brain Leptomeningeal metastasis (LM) results from metastatic spread of cancer to the leptomeninges, giving rise to central nervous system dysfunction. Kp,uu CSF represents the distribution of drug in CSF as compared to that in blood, which drives drug response during leptomeningeal metastasis treatment.
In vitro blood and brain binding assay was carried out on a HT-Dialysis plate (Gales Ferry, Conn.) with semi-permeable membrane. Diluted blood (1:1 with DPBS pH7.4) and brain homogenate (1:3 with DPBS pH7.4) were spiked with 5 μM test compound (in triplicate) and dialyzed against equal volume of 150 μL 100 mM PBS buffer (pH7.4) at 37° C. for 4 hours in a slowly rotated plate. At the end of incubation, a 50 μL aliquot from the receiver side and a […] from the donor chamber were taken. The 5 μL sample was further diluted with 45 μL of blank blood or brain homogenate. Paired samples were matrix-matched with either buffer or blank blood/brain homogenate and mixed for 2 min, and then precipitated with 150 μL cold acetonitrile with 100 ng/mL tolbutamide as internal standard. After centrifuging at 4000 rpm for 20 min, supernatant was diluted with 0.1% formic acid aqueous solution and analyzed for LC/MS/MS (API 4000, Applied Biosystems, Foster City). […]. D is dilution factor.
A Short oral absorption (SOA) model is an in-vivo screening model to identify brain penetration of a compound. Six male Han Wistar rats purchased from Beijing Vital River were orally dosed with the compound at 2 mg/kg in 1% methylcellulose. At 0.25, 0.5, 1, 2, 4 and 7 hour post-dose, cerebral spinal fluid (CSF) was collected from cisterna magna, and blood samples (>60 μL/time point/each site) were collected via cardiac puncture, into separate EDTA […] tubes, and then immediately diluted with 3-fold volume of water. Brain tissue was harvested and homogenized in 3× volume of 100 mM phosphate buffered saline (pH7.4). All samples were stored at ˜−70° C. prior to LC/MS/MS analysis.
Standards were prepared by spiking blank blood, brain homogenate and artificial CSF covering 0.2 to 500 ng/mL. Homogenized brain tissue along with blood samples were precipitated by adding 3-fold volume of cold acetonitrile containing internal standard (40 ng/mL Dexamethasone and 40 ng/mL Diclofenac), and 10 μL of CSF samples were precipitated with 100 μL of cold acetonitrile containing internal standard. After 2 min vortex and 5 min centrifugation at 14,000 rpm, supernatant was analyzed by LC/MS/MS (API 4000, Applied Biosystems, Foster City). Two sets of standard curves were run at the beginning and end of each batch from blood sample analysis. For brain and CSF samples, one standard curve was analyzed along with test samples.
Total brain levels, expressed as brain/blood ratio (Kp,brain) were measured by AUCbrain/AUCblood in rodents after oral administration. Free fraction of test compound in biological matrix was determined by in vitro blood and brain binding assay. Kp,uu brain and Kp,uu CSF were calculated by the following equation: Kp,uu brain=AUCbrain/AUCblood×(fu,brain/fu.blood) and Kp,uu CSF=AUCCSF/(AUCblood×fu.blood).

For data set [2] the following is noted: literature reports; cited from earlier work.

Where two headings read alike, the source gives them in different places.

Take `COc1cc2ncnc(Nc3cccc(Cl)c3F)c2cc1OC(=O)N1CCN(C)C[C@H]1C` [Example 1, 4-[(3-Chloro-2-fluorophenyl)amino]-7-methoxyquinazolin-6-yl (2R)-2,4-dimethylpiperazine-1-carboxylate]: the Kp uu in data set [1] (male, Han Wistar, in vivo, po, 2 mg/kg, AUCCSF/(AUCblood x fu,blood), read-out: Kp, uu CSF) is 1 to 1.3; in data set [1] (male, Han Wistar, in vivo, po, 2 mg/kg, AUCbrain/AUCblood x (fu,brain/fu,blood), read-out: Kp, uu brain) it was 0.8 to 1.3. With `COc1cc2ncnc(Nc3cccc(Cl)c3F)c2cc1OC(=O)N1CCN(C)C[C@@H]1C` [Example 3, 4-[(3-Chloro-2-fluorophenyl)amino]-7-methoxyquinazolin-6-yl (2S)-2,4-dimethylpiperazine-1-carboxylate], the Kp uu in data set [1] (CSF / blood, AUCCSF/(AUCblood x fu,blood), read-out: Kp, uu CSF) was determined as 2.6. As to `CN(C)C/C=C/C(=O)Nc1cc2c(Nc3ccc(F)c(Cl)c3)ncnc2cc1O[C@H]1CCOC1` [afatinib], in data set [2], the “adverse effects, such as skin rash and diarrhoea, share of NSCLC patients treated” value was greater than 90%.

Regarding `COc1cc2ncnc(Nc3ccc(F)c(Cl)c3)c2cc1NC(=O)/C=C/CN1CCCCC1` [dacomitinib], in data set [2], the “adverse effects, such as skin rash and diarrhoea, share of NSCLC patients treated” value is greater than 90%. Regarding `CNC(=O)CN1CCC(Oc2cc3c(Nc4cccc(Cl)c4F)ncnc3cc2OC)CC1` [sapitinib], the “Kp, uu CSF” value in data set [1] (AUCCSF/(AUCblood x fu,blood)) is listed as “Below quantification limit”. Also, the Kp uu in data set [1] (AUCbrain/AUCblood x (fu,brain/fu,blood), read-out: Kp, uu brain) came out at 0.13.
